Results from article PMC5078989, “Targeted inhibition of the COP9 signalosome for treatment of cancer” (Nature Communications, 2016).

How the values were obtained:
Assay type in all cases: biochemical
[1] = biological target: T1, human MMP8 (Homo sapiens, UniProt P22894); test: Selectivity assay MMP8
T1 construct: human MMP8 (Uniprot P22894), amino acids 100–262; made in house; host or cells: E. coli
Procedure: (§1) All biochemical assays were performed at room temperature in 384-well plates in a total volume of 25.25 μl per well. Test compounds were dissolved in 90% (v/v) DMSO/water. For the assays, 250 nl of compound solution was added per well, followed by addition of 12.5 μl protease solution. After 70 min of pre-incubation at room temperature, the reactions were started by addition of 12.5 μl substrate solution and followed either by measuring fluorescence intensity (rhodamine 110-based substrates) or by fluorescence lifetime (PT14-based substrates). The effect of compound on enzymatic activity was obtained from the linear part of the progress curves and determined after 1 h (t=60 min). The final compound concentrations ranged from 100 μM to 1 nM.
(§2) Matrix metalloproteinases. Human MMP1 (Uniprot P03956), amino acids 1–469, expressed in and purified from stable transfected C127 cells; human MMP2 (Uniprot P08253), amino acids 1–660, expressed in and purified from insect cells (baculovirus expression system); human MMP8 (Uniprot P22894), amino acids 100–262, expressed in and purified from E. coli; human MMP9 (Uniprot P14780), amino acids 1–707, expressed in and purified from stable transfected 293 cells; human MMP12 (Uniprot P39900), amino acids 101–268, expressed in and purified from E. coli; human MMP13 (Uniprot P45452), amino acids 103–274, expressed in and purified from E. coli; human MMP14 (Uniprot P50281), amino acids 112–284, expressed in and purified from E. coli; human ADAM17 (Uniprot P78536), amino acids 1–670, expressed in and purified from insect cells (baculovirus expression system); substrate: Ac-C(PT14)-[…]-NH2 purchased from Biosyntan (product number 8069); enzyme concentrations: 3 nM (MMP1), 1 nM (MMP2), 3 nM (MMP8), 0.1 nM (MMP9), 0.5 nM (MMP12), 0.13 nM (MMP13), 0.005 nM (MMP14), 30 nM (ADAM17); substrate concentration: 0.8 μM; assay buffer: 100 mM Tris, pH 7.4, 100 mM NaCl, 10 mM CaCl2, 10 μM ZnCl2, 0.075% (v/v) Brij35.

[2] = biological target: T2, human ADAM17 (Homo sapiens, UniProt P78536); test: Selectivity assay ADAM17
T2 construct: human ADAM17 (Uniprot P78536), amino acids 1–670; made in house; host or cells: insect cells (baculovirus)
T2 sequence (P78536 18-670): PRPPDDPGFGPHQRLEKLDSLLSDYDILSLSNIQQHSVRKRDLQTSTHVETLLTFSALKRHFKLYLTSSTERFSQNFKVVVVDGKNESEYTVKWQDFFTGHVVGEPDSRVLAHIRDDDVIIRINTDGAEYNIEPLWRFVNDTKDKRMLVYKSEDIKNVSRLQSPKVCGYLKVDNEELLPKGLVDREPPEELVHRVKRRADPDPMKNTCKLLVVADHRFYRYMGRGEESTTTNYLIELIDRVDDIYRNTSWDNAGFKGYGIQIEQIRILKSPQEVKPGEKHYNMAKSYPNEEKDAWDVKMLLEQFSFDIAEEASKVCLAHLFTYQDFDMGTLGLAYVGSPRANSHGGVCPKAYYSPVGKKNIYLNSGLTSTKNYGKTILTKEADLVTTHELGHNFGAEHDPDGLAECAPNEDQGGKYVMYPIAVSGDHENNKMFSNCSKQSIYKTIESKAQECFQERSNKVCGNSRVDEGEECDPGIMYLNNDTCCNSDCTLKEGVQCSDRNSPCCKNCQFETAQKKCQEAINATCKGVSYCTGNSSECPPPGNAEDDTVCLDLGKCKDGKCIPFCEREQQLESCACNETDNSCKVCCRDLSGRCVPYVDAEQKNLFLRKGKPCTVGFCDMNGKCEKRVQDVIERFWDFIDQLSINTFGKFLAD
Procedure: as §1, §2

[3] = biological target: T3, human MMP13 (Homo sapiens, UniProt P45452); test: Selectivity assay MMP13
T3 construct: human MMP13 (Uniprot P45452), amino acids 103–274; made in house; host or cells: E. coli
Procedure: as §1, §2

[4] = biological target: T4, human MMP12 (Homo sapiens, UniProt P39900); test: Selectivity assay MMP12
T4 construct: human MMP12 (Uniprot P39900), amino acids 101–268; made in house; host or cells: E. coli
T4 sequence (P39900 101-268): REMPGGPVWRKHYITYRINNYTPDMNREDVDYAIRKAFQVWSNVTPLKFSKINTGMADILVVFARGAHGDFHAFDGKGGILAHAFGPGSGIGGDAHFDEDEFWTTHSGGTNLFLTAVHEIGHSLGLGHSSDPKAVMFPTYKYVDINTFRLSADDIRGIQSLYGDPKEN
Procedure: as §1, §2

[5] = biological target: T5, human MMP2 (Homo sapiens, UniProt P08253); test: Selectivity assay MMP2
T5 construct: human MMP2 (Uniprot P08253), amino acids 1–660; made in house; host or cells: insect cells (baculovirus)
T5 sequence (P08253 30-660): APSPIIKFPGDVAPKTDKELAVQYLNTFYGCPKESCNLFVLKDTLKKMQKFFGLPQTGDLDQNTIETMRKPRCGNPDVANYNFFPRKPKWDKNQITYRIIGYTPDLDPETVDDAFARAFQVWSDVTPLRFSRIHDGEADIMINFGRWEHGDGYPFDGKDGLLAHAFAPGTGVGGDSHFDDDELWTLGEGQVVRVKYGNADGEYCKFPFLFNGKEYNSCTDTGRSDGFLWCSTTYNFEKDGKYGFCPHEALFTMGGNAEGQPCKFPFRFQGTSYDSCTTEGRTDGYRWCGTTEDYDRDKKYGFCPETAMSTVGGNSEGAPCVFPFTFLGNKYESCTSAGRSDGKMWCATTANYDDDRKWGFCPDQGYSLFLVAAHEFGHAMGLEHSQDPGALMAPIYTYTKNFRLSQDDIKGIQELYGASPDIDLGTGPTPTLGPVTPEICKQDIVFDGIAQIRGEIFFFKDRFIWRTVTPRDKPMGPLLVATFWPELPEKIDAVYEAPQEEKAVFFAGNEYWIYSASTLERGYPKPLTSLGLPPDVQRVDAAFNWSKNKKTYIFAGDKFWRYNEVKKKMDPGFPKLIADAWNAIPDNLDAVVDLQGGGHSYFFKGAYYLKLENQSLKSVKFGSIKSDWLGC
Procedure: as §1, §2

[6] = biological target: T6, human MMP14 (Homo sapiens, UniProt P50281); test: Selectivity assay MMP14
T6 construct: human MMP14 (Uniprot P50281), amino acids 112–284; made in house; host or cells: E. coli
Procedure: as §1, §2

T1 sequence (P22894 100-262): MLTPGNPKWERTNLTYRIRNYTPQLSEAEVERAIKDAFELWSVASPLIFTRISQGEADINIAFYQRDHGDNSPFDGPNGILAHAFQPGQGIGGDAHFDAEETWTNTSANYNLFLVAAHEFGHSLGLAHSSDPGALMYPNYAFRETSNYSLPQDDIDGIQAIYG

## COCc1ccccc1NCc1ccc([C@H]2[C@@H](O)CCCc3cncn32)c(-c2ccccc2Cl)c1 [CSN5i-2, (5S,6S)-5-(2′-chloro-5-(((2-(methoxymethyl)phenyl)amino)methyl)-[1,1′-biphenyl]-2-yl)-6,7,8,9-tetrahydro-5H-imidazo[1,5-a]azepin-6-ol]
[1]
  IC50: 59 ± 8 µM
[2]
  IC50: > 100 µM
[3]
  IC50: > 100 µM
[4]
  IC50: > 100 µM
[5]
  IC50: 89 ± 3 µM
[6]
  IC50: 15.4 ± 0.02 µM

## COCc1ccccc1NCc1ccc([C@@H]2[C@H](O)CCCc3cncn32)c(-c2ccccc2Cl)c1 [CSN5i-2e, (5R,6R)-5-(2′-chloro-5-(((2-(methoxymethyl)phenyl)amino)methyl)-[1,1′-biphenyl]-2-yl)-6,7,8,9-tetrahydro-5H-imidazo[1,5-a]azepin-6-ol]
[1]
  IC50: 48 ± 8 µM
[2]
  IC50: > 100 µM
[3]
  IC50: > 100 µM
[4]
  IC50: > 100 µM
[5]
  IC50: ≥ 90 µM
[6]
  IC50: 11 ± 1 µM

## CC(C)n1nc(C(F)F)cc1C(=O)Nc1ccc([C@H]2[C@@H](O)CCCc3cncn32)c(-c2ccccc2)c1 [CSN5i-3, 3-(Difluoromethyl)-N-(6-((5S,6S)-6-hydroxy-6,7,8,9-tetrahydro-5H-imidazo[1,5-a]azepin-5-yl)-[1,1′-biphenyl]-3-yl)-1-isopropyl-1H-pyrazole-5-carboxamide]
[1]
  IC50: 14 ± 0.1 µM
[2]
  IC50: > 100 µM
[3]
  IC50: > 100 µM
[4]
  IC50: > 100 µM
[5]
  IC50: > 100 µM
[6]
  IC50: 4.6 ± 0.5 µM
